Experimental data published in ChEMBL document CHEMBL1629476, “Synthesis and biological evaluation of aminoketones” (2010).
Values after ≈ are worked out from the molar mass of the structure shown.

Tests used:
Format in all cases: functional
Staphylococcus aureus = assay: Antibacterial activity against Staphylococcus aureus after 16 hrs by serial dilution method
Bacillus subtilis = assay: Antibacterial activity against Bacillus subtilis after 16 hrs by serial dilution method
Escherichia coli = assay: Antibacterial activity against Escherichia coli after 16 hrs by serial dilution method
Pseudomonas aeruginosa = assay: Antibacterial activity against Pseudomonas aeruginosa after 16 hrs by serial dilution method

| SMILES | MIC (Staphylococcus aureus) [µg/mL] | MIC (Bacillus subtilis) [µg/mL] | MIC (Escherichia coli) [µg/mL] | MIC (Pseudomonas aeruginosa) [µg/mL] |
| --- | --- | --- | --- | --- |
| Cc1cc2cc(NC(c3ccncc3)C3CCCCC3=O)ccc2[nH]1 (stereo not drawn) | 3.12 (≈ 9.37 µM) | 1.61 (≈ 4.84 µM) | 1.61 (≈ 4.84 µM) | 1.61 (≈ 4.84 µM) |
| COc1cccc(NC(c2cccc(C)c2O)C2CCCCC2=O)c1 (stereo not drawn) | 1.61 (≈ 4.75 µM) | 1.61 (≈ 4.75 µM) | 1.61 (≈ 4.75 µM) | 1.61 (≈ 4.75 µM) |
| C=CCOc1ccccc1C(Nc1cccc(F)c1)C1CCCCC1=O (stereo not drawn) | 6.25 (≈ 17.7 µM) | 3.12 (≈ 8.84 µM) | 3.12 (≈ 8.84 µM) | 6.25 (≈ 17.7 µM) |
| N#Cc1ccc(NC(c2ccccc2Cl)C2CCCCC2=O)cc1 (stereo not drawn) | 3.12 (≈ 9.22 µM) | 1.61 (≈ 4.76 µM) | 1.61 (≈ 4.76 µM) | 1.61 (≈ 4.76 µM) |
| O=C1CCCCC1C(Nc1cccc2ccccc12)c1cc2ccccc2o1 (stereo not drawn) | 3.12 (≈ 8.46 µM) | 3.12 (≈ 8.46 µM) | 1.61 (≈ 4.37 µM) | 1.61 (≈ 4.37 µM) |
| CCc1ccc(C(Nc2ccc(C)c([N+](=O)[O-])c2)C2CCCCC2=O)cc1 (stereo not drawn) | 6.25 (≈ 17.1 µM) | 6.25 (≈ 17.1 µM) | 6.25 (≈ 17.1 µM) | 25 (≈ 68.2 µM) |
| CO/N=C(\C(=O)N[C@@H]1C(=O)N2C(C(=O)O)=C(CSc3nc(=O)c(O)nn3C)CS[C@H]12)c1csc(N)n1 [CEFTRIAXONE] | 3.12 (≈ 5.63 µM) | 1.61 (≈ 2.91 µM) | 1.61 (≈ 2.91 µM) | 1.61 (≈ 2.91 µM) |
| CC(C)(C)c1ccc(NC(c2ccccc2)C2CCCCC2=O)cc1 (stereo not drawn) | 6.25 (≈ 18.6 µM) | 6.25 (≈ 18.6 µM) | 12.5 (≈ 37.3 µM) | 6.25 (≈ 18.6 µM) |

The remaining lines, values ahead:

| MIC (Staphylococcus aureus) [µg/mL] | MIC (Bacillus subtilis) [µg/mL] | MIC (Escherichia coli) [µg/mL] | MIC (Pseudomonas aeruginosa) [µg/mL] | SMILES |
| --- | --- | --- | --- | --- |
| 3.12 (≈ 8.6 µM) | 1.61 (≈ 4.44 µM) | 1.61 (≈ 4.44 µM) | 1.61 (≈ 4.44 µM) | COc1ccc(F)c(C(Nc2ccc(F)cc2F)C2CCCCC2=O)c1 (stereo not drawn) |
| 3.12 (≈ 9.37 µM) | 1.61 (≈ 4.84 µM) | 1.61 (≈ 4.84 µM) | 1.61 (≈ 4.84 µM) | O=C1CCCCC1C(Nc1ccc(F)c(F)c1)c1ccccc1F (stereo not drawn) |
| 1.61 (≈ 4.84 µM) | 1.61 (≈ 4.84 µM) | 1.61 (≈ 4.84 µM) | 1.61 (≈ 4.84 µM) | O=C1CCCCC1C(Nc1ccc(F)cc1F)c1ccc(F)cc1 (stereo not drawn) |
| 12.5 (≈ 34.6 µM) | 12.5 (≈ 34.6 µM) | 12.5 (≈ 34.6 µM) | 12.5 (≈ 34.6 µM) | CCc1ccc(C(Nc2cc(F)c(F)c(F)c2)C2CCCCC2=O)cc1 (stereo not drawn) |
